Laboratory results reported in patent USRE48461E1, “Modulation of androgen receptor expression” (Ionis Pharmaceuticals, Inc., priority 2012, dated 2021).

Key:
Type in all cases: cell-based, human
PSA mRNA = assay: PSA expression in VCaP cells; details: 48 hrs
Method: (§1) Cells were plated at 10,000 cells per well. […] After an incubation period of 48 hrs, RNA levels of full length AR, the V7 variant, PSA and TMPRSS2 were measured.
(§2) After an incubation period of 48 hrs, RNA levels of full length AR, the V7 variant, PSA and TMPRSS2 were measured. The data is presented in Tables 108 expressed as percent expression of gene levels compared to the untreated control.
(§3) Cells were plated at 15,000 cells per well and cultured in CSS media for 16 hours. […] After 4 hrs, 1 nM DHT was added. […] After an incubation period of 48 hrs, RNA levels of AR, PSA and TMPRSS2 were measured.

TMPRSS2 mRNA [1] = assay: TMPRSS2 expression in VCaP cells; details: 48 hrs
Method: as §1, §2, §3

C4-2B cells = assay: C4-2B cell proliferation (complete or CSS+DHT medium; Example 30); details: 5 days; for Proliferation (% untreated control): C4-2B cells
Method: After a treatment period of 5 days in complete medium or CSS+1 nM DHT medium, the proliferative capacity of the cancer cells was measured with using CellTiter 96® AQueous One or CellTiter-Glo® Solution Cell Proliferation kit (Promega), following the manufacturer's instructions.

TMPRSS2 mRNA [2] = assay: TMPRSS2 expression in 22RV1 cells; details: 48 hrs
Method: Cells were plated at 1,000 cells per well. […] After an incubation period of 48 hrs, RNA levels of full length AR, the V7 variant, PSA and TMPRSS2 were measured.
After an incubation period of 48 hrs, RNA levels of full length AR, the V7 variant, PSA and TMPRSS2 were measured.
Cells were plated at 2,000 cells per well and cultured in CSS media for 16 hours. […] After 4 hrs, 1 nM DHT was added. […] After an incubation period of 48 hrs, RNA levels of AR, AR V7 variant, PSA and TMPRSS2 were measured.

[3] = tested on: prostate-specific antigen (PSA) mRNA; assay: Time-course PSA expression in C4-2B cells
Method: C4-2B cells were plated at 1,000 cells per well in complete medium. […] ISIS 549148 was included as a negative control. […] After a treatment period of 8 hours, 24 hours, and 48 hours, AR expression was measured with primer probe set hAR-LTS00943. Results are presented in Tables 70-72 as percent expression of AR, relative to non-treated cells.
Expression analysis of prostate-specific antigen (PSA) and TMPRSS2 were also analyzed. Results are presented in Tables 73-75 as percent inhibition of PSA expression and Tables 76-78 as percent inhibition of TMPRSS2 expression, relative to non-treated cells.

cleaved PARP = assay: Cleaved PARP western blot in VCaP cells
TMPRSS2 mRNA [4] = assay: TMPRSS2 expression in LNCaP cells (complete, CSS+DHT medium); details: for Percent inhibition of TMPRSS2 expression in LNCaP cells cultured in CSS + DHT medium: CSS + DHT (1 nM) medium, 48 hrs; for Percent inhibition of TMPRSS2 expression in LNCaP cells cultured in complete medium: 48 hours
Method: Cells were plated at 1,000 cells per well. […] ISIS 549148 was included as a negative control. […] After an incubation period of 48 hours, RNA levels of AR, PSA and TMPRSS2 were measured.
Cells were plated at 2,000 cells per well and cultured in phenol red-free RPMI supplemented with 5% charcoal stripped serum (Gibco) media for 16 hours. […] ISIS 549148 was included as a negative control. […] After an incubation period of 4 hrs, DHT was added to the medium to a final concentration of 1 nM as indicated. RNAs were collected 48 hrs later and levels of AR, PSA and TMPRSS2 were measured. In the absence of DHT, AR expression in LNCaP cells was 95%, PSA expression was 7% and TMPRSS2 expression was 24% compared to the untreated control.

TMPRSS2 mRNA [5] = assay: TMPRSS2 expression in C4-2B cells (Example 30); details: 48 hrs
Method: Cells were plated at 1,000 cells per well. […] ISIS 549148 was included as a negative control. […] After an incubation period of 48 hrs, RNA levels of AR, PSA and TMPRSS2 were measured.
Cells were plated at 2,000 cells per well and cultured in CSS media with 1 nM DHT. […] ISIS 549148 was included as a negative control. […] After an incubation period of 48 hrs, RNA levels of AR, PSA and TMPRSS2 were measured. In the absence of DHT, AR expression in C4-2 cells was 188%, PSA expression was 43% and TMPRSS2 expression was 27% compared to the untreated control.

CNC(=O)c1ccc(N2C(=S)N(c3ccc(C#N)c(C(F)(F)F)c3)C(=O)C2(C)C)cc1F [MDV3100, 4-(3-(4-cyano-3-(trifluoromethyl)phenyl)-5,5-dimethyl-4-oxo-2-thioxoimidazolidin-1-yl)-2-fluoro-N-methylbenzamide, reference compound]
Percent of gene expression, PSA (PSA mRNA; CSS + DHT medium, 0.04 μM): 90%
Percent of gene expression, PSA (PSA mRNA; CSS + DHT medium, 0.2 μM): 72%
Percent of gene expression, PSA (PSA mRNA; CSS + DHT medium, 1.0 μM): 57%
Percent of gene expression, PSA (PSA mRNA; CSS + DHT medium, 5.0 μM): 30%
Percent of gene expression, PSA (PSA mRNA; complete medium, 0.04 μM): 105%
Percent of gene expression, PSA (PSA mRNA; complete medium, 0.2 μM): 76%
Percent of gene expression, PSA (PSA mRNA; complete medium, 1.0 μM): 75%
Percent of gene expression, PSA (PSA mRNA; complete medium, 5.0 μM): 61%
Percent of gene expression, TMPRSS2 (TMPRSS2 mRNA [1]; CSS + DHT medium, 0.04 μM): 115%
Percent of gene expression, TMPRSS2 (TMPRSS2 mRNA [1]; CSS + DHT medium, 0.2 μM): 96%
Percent of gene expression, TMPRSS2 (TMPRSS2 mRNA [1]; CSS + DHT medium, 1.0 μM): 70%
Percent of gene expression, TMPRSS2 (TMPRSS2 mRNA [1]; CSS + DHT medium, 5.0 μM): 42%
Percent of gene expression, TMPRSS2 (TMPRSS2 mRNA [1]; complete medium, 0.04 μM): 131%
Percent of gene expression, TMPRSS2 (TMPRSS2 mRNA [1]; complete medium, 0.2 μM): 121%
Percent of gene expression, TMPRSS2 (TMPRSS2 mRNA [1]; complete medium, 5.0 μM): 141%
Proliferation (% untreated control) (C4-2B cells; CSS + DHT medium, 0.04 μM): 125 % untreated control
Proliferation (% untreated control) (C4-2B cells; CSS + DHT medium, 0.2 μM): 100 % untreated control
Proliferation (% untreated control) (C4-2B cells; CSS + DHT medium, 1 μM): 83 % untreated control
Proliferation (% untreated control) (C4-2B cells; CSS + DHT medium, 5.0 μM): 17 % untreated control
Proliferation (% untreated control) (C4-2B cells; complete medium, 0.04 μM): 131 % untreated control
Proliferation (% untreated control) (C4-2B cells; complete medium, 0.2 μM): 105 % untreated control
Proliferation (% untreated control) (C4-2B cells; complete medium, 1 μM): 72 % untreated control
Proliferation (% untreated control) (C4-2B cells; complete medium, 5.0 μM): 60 % untreated control
proliferation of C4-2B cells (C4-2B cells; complete medium or CSS+1 nM DHT): reduced proliferation of the cells in a dose dependent compared to the control
Percent of gene expression, TMPRSS2 (TMPRSS2 mRNA [2]; CSS + DHT medium, 0.04 μM): 17%
Percent of gene expression, TMPRSS2 (TMPRSS2 mRNA [2]; CSS + DHT medium, 0.2 μM): 9%
Percent of gene expression, TMPRSS2 (TMPRSS2 mRNA [2]; CSS + DHT medium, 1.0 μM): 26%
Percent of gene expression, TMPRSS2 (TMPRSS2 mRNA [2]; CSS + DHT medium, 5.0 μM): 18%
Percent of gene expression, TMPRSS2 (TMPRSS2 mRNA [2]; complete medium, 0.04 μM): 101%
Percent of gene expression, TMPRSS2 (TMPRSS2 mRNA [2]; complete medium, 0.2 μM): 80%
Percent of gene expression, TMPRSS2 (TMPRSS2 mRNA [2]; complete medium, 1.0 μM): 82%
Percent of gene expression, TMPRSS2 (TMPRSS2 mRNA [2]; complete medium, 5.0 μM): 93%
Percent inhibition of PSA expression compared to the control group in 8 hours ([3]; 0.04 μM): 0%
Percent inhibition of PSA expression compared to the control group in 24 hours ([3]; 0.04 μM): 24%
Percent inhibition of PSA expression compared to the control group in 48 hours ([3]; 0.04 μM): 5%
Percent inhibition of PSA expression compared to the control group in 8 hours ([3]; 0.2 μM): 3%
Percent inhibition of PSA expression compared to the control group in 24 hours ([3]; 0.2 μM): 24%
Percent inhibition of PSA expression compared to the control group in 48 hours ([3]; 0.2 μM): 5%
Percent inhibition of PSA expression compared to the control group in 8 hours ([3]; 1 μM): 23%
Percent inhibition of PSA expression compared to the control group in 24 hours ([3]; 1 μM): 53%
Percent inhibition of PSA expression compared to the control group in 48 hours ([3]; 1 μM): 32%
Percent inhibition of PSA expression compared to the control group in 8 hours ([3]; 5.0 μM): 33%
Percent inhibition of PSA expression compared to the control group in 24 hours ([3]; 5.0 μM): 65%
Percent inhibition of PSA expression compared to the control group in 48 hours ([3]; 5.0 μM): 63%
PSA expression ([3]; time course): also reduced downstream gene expressions but not as potently as that with the ISIS oligonucleotides
cleaved PARP levels (western blot) (cleaved PARP): increased in a dose-dependent manner
Percent inhibition of TMPRSS2 expression in LNCaP cells cultured in CSS + DHT medium (TMPRSS2 mRNA [4]; 0.04 μM): 8%
Percent inhibition of TMPRSS2 expression in LNCaP cells cultured in CSS + DHT medium (TMPRSS2 mRNA [4]; 0.2 μM): 24%
Percent inhibition of TMPRSS2 expression in LNCaP cells cultured in CSS + DHT medium (TMPRSS2 mRNA [4]; 1 μM): 60%
Percent inhibition of TMPRSS2 expression in LNCaP cells cultured in CSS + DHT medium (TMPRSS2 mRNA [4]; 5.0 μM): 69%
Percent inhibition of TMPRSS2 expression in LNCaP cells cultured in complete medium (TMPRSS2 mRNA [4]; 0.04 μM): 0%
Percent inhibition of TMPRSS2 expression in LNCaP cells cultured in complete medium (TMPRSS2 mRNA [4]; 0.2 μM): 0%
Percent inhibition of TMPRSS2 expression in LNCaP cells cultured in complete medium (TMPRSS2 mRNA [4]; 1 μM): 34%
Percent inhibition of TMPRSS2 expression in LNCaP cells cultured in complete medium (TMPRSS2 mRNA [4]; 5.0 μM): 39%
Percent inhibition of TMPRSS2 expression (TMPRSS2 mRNA [5]; CSS + DHT medium, 0.04 μM): 0%
Percent inhibition of TMPRSS2 expression (TMPRSS2 mRNA [5]; CSS + DHT medium, 0.2 μM): 11%
Percent inhibition of TMPRSS2 expression (TMPRSS2 mRNA [5]; CSS + DHT medium, 1 μM): 48%
Percent inhibition of TMPRSS2 expression (TMPRSS2 mRNA [5]; CSS + DHT medium, 5.0 μM): 66%
Percent inhibition of TMPRSS2 expression (TMPRSS2 mRNA [5]; complete medium, 0.04 μM): 3%
Percent inhibition of TMPRSS2 expression (TMPRSS2 mRNA [5]; complete medium, 0.2 μM): 24%
Percent inhibition of TMPRSS2 expression (TMPRSS2 mRNA [5]; complete medium, 1 μM): 55%
Percent inhibition of TMPRSS2 expression (TMPRSS2 mRNA [5]; complete medium, 5.0 μM): 71%
